The text below walks through data of PubChem BioAssay (NCI).

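The compound was tested at five concentrations on cells cultured in 96-well plates, with a 48-hour exposure period. At the TGI there is no net growth.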 A value given as a limit tells only on which side of the number the result lay.

Among the test systems are UO-31 renal; SF-268 CNS; KM12 colon; HL-60(TB) leukemia; NCI/ADR-RES ovarian; HT29 colon; UACC-62 melanoma; EKVX NSCLC; OVCAR-3 ovarian; U251 CNS; HCT-116 colon.
Common to all, as to assay: NCI tumour cell line growth inhibition, 48 h

In the case of `COc1ccc(C2C3=C(CCCC3=O)N(c3ccccc3)C3=C2C(=O)CCC3)cc1`, the TGI in the experiment with UO-31 renal, in the experiment with SF-268 CNS, with KM12 colon, in the experiment on HL-60(TB) leukemia, in the experiment on NCI/ADR-RES ovarian and in the experiment with HT29 colon was over 100 µM in each case. For the same compound, the TGI in the experiment on UACC-62 melanoma, with EKVX NSCLC, with OVCAR-3 ovarian and with U251 CNS was over 100 µM in each case.
As for `CCC(CCCCC1CC[C@H]2CC(=O)C[C@@H]12)OC` (some centres undefined), the TGI with HCT-116 colon, in the experiment on SF-268 CNS, with KM12 colon, in the experiment on HL-60(TB) leukemia, in the experiment on NCI/ADR-RES ovarian and in the experiment with HT29 colon was over 100 µM in each case. Besides, the TGI with UACC-62 melanoma, with EKVX NSCLC, in the experiment with OVCAR-3 ovarian and in the experiment on U251 CNS was over 100 µM each time.
Regarding `CCOC(=O)c1nc2ccc(C(F)(F)F)cc2nc1Nc1ccc(OC)c(OC)c1`, the TGI in the experiment on HCT-116 colon, with UO-31 renal, in the experiment on SF-268 CNS, in the experiment with KM12 colon, in the experiment on HL-60(TB) leukemia and in the experiment with NCI/ADR-RES ovarian was over 100 µM each time. The TGI in the experiment on HT29 colon, in the experiment with UACC-62 melanoma, in the experiment with EKVX NSCLC and in the experiment with OVCAR-3 ovarian was over 100 µM throughout.
As for `CN(C)N1C(=O)CC2(CCN(CCCC(=O)c3ccc(F)cc3)CC2)C1=O`, the TGI in the experiment with HCT-116 colon, with UO-31 renal, with SF-268 CNS, in the experiment with KM12 colon, in the experiment with HL-60(TB) leukemia and in the experiment on NCI/ADR-RES ovarian was over 100 µM each time. Besides, the TGI with HT29 colon, in the experiment on UACC-62 melanoma, in the experiment on OVCAR-3 ovarian and in the experiment with U251 CNS was over 100 µM each time.
For the compound `CC(C)C(/C=C/c1ccc(Cl)cc1)=N\NC(=S)NN`, the TGI in the experiment with HCT-116 colon is 11.4 µM; in the experiment with UO-31 renal, over 100 µM; in the experiment with SF-268 CNS it was over 100 µM; in the experiment with KM12 colon, over 100 µM; in the experiment on HL-60(TB) leukemia it was 30.7 µM; in the experiment with NCI/ADR-RES ovarian it was 48.1 µM. For the same compound, the TGI in the experiment on HT29 colon was over 100 µM; with UACC-62 melanoma, 30.5 µM; in the experiment on OVCAR-3 ovarian it was 78 µM; in the experiment with U251 CNS, over 100 µM.
`COc1ccc(-n2nnnc2C2(Nc3ccccc3)CCN(Cc3ccccc3)CC2)cc1`: the TGI is 26.2 µM in the experiment on HCT-116 colon; 38.9 µM in the experiment on UO-31 renal; 18.8 µM in the experiment on KM12 colon; 8.14 µM in the experiment with HL-60(TB) leukemia; 51 µM in the experiment with NCI/ADR-RES ovarian; 21.3 µM in the experiment with HT29 colon. For the same compound, the TGI was 31.1 µM in the experiment with UACC-62 melanoma, 92 µM in the experiment on EKVX NSCLC and over 100 µM with U251 CNS.
Regarding `C[C@]12CCC(=O)C=C1CC[C@@H]1[C@@H]2CC[C@]2(C)C(=O)/C(=C\c3ccccc3)C[C@@H]12`, the TGI with HCT-116 colon was over 48.7 µM; in the experiment with UO-31 renal, over 70.6 µM; in the experiment on KM12 colon it was over 64.3 µM; with HL-60(TB) leukemia, over 50.5 µM; with NCI/ADR-RES ovarian it was 72.7 µM; with HT29 colon, over 100 µM. Besides, the TGI in the experiment with UACC-62 melanoma is over 66.2 µM; with EKVX NSCLC it was over 100 µM; in the experiment on OVCAR-3 ovarian, over 77.1 µM; with U251 CNS, over 69.4 µM.
In the case of `COc1ccc(N2C(=O)CC(c3c[nH]c4ccccc34)C2=O)cc1` (centres undefined), the TGI in the experiment on HCT-116 colon, in the experiment with UO-31 renal, with SF-268 CNS, with HL-60(TB) leukemia, in the experiment on NCI/ADR-RES ovarian and in the experiment on HT29 colon was over 100 µM in each case. For the same compound, the TGI in the experiment on UACC-62 melanoma, in the experiment on EKVX NSCLC, in the experiment on OVCAR-3 ovarian and in the experiment with U251 CNS was over 100 µM each time.
Take `CC(C)(C)OC(=O)N1C(=O)OC[C@@H]2C=C[C@@H]21`: the TGI with HCT-116 colon, in the experiment on SF-268 CNS, in the experiment with KM12 colon, in the experiment with HL-60(TB) leukemia, in the experiment with NCI/ADR-RES ovarian and in the experiment with HT29 colon was over 100 µM each time. Moreover, the TGI with UACC-62 melanoma, with EKVX NSCLC, in the experiment with OVCAR-3 ovarian and in the experiment with U251 CNS was over 100 µM throughout.
`COc1ccc2nc(-c3ccc(O)cc3)cn2c1`: the TGI in the experiment with HCT-116 colon, with UO-31 renal, with SF-268 CNS, with KM12 colon, in the experiment on NCI/ADR-RES ovarian and in the experiment with HT29 colon was over 100 µM in each case. Also, the TGI was 86.2 µM in the experiment with UACC-62 melanoma, over 100 µM with EKVX NSCLC, over 100 µM with OVCAR-3 ovarian and over 100 µM in the experiment on U251 CNS.
With `CC1(CC(=O)OC(C#C[Si](C)(C)C)Cc2ccccc2)OCCO1` (centres undefined), the TGI in the experiment on HCT-116 colon, in the experiment on UO-31 renal, with SF-268 CNS, in the experiment on KM12 colon, in the experiment on HL-60(TB) leukemia and in the experiment on NCI/ADR-RES ovarian was over 100 µM each time. Also, the TGI with HT29 colon, in the experiment on UACC-62 melanoma, in the experiment on EKVX NSCLC and with U251 CNS was over 100 µM each time.
Take `Clc1ccc(-c2cc(-c3nc4ccccc4[nH]3)no2)cc1`: the TGI in the experiment on HCT-116 colon stood at 30.6 µM; with UO-31 renal it was 34.7 µM; in the experiment with SF-268 CNS, 45.9 µM; in the experiment on KM12 colon it was 40 µM; in the experiment on HL-60(TB) leukemia, 37.2 µM; in the experiment with NCI/ADR-RES ovarian, 73.5 µM. Further, the TGI with HT29 colon was determined as 35.3 µM; in the experiment with UACC-62 melanoma it was 28.3 µM; in the experiment on EKVX NSCLC, 34 µM; with OVCAR-3 ovarian, 35.7 µM.
